{Cy5.5} = Cy5.5 fluorophore label

The record followed here is patent US20230193262A1, “Nucleic acid molecules capable of modulating target gene expression and uses thereof” (KOREA ADVANCED INSTITUTE OF SCIENCE AND TECHNOLOGY, priority 2021, published 2023).

Common to all, as to assay type: cell-based
Data set [1] concerns breast cancer cell line MDA-MB-231. Briefly: Cell viability / apoptosis in MDA-MB-231. Here is the method:
(§1) The miRNA triggers were assayed for cytotoxicity and apoptosis induction, using the CCK-8 (Cell Counting Kit-8) (Dojindo, Kumamoto, Japan) according to the manufacturer's instruction. Cells were incubated in 96-well plates (5×10^3 cells/well) at 37° C. for 24 hours under a 5% CO2 atmosphere, followed by transfection. Three days after transfection, the medium was removed. A 10-fold dilution of CCK-8 solution in DMEM was added to the cells which were then incubated at 37° C. for 2 hours. After incubation, absorbance was read at 450 nm on Tecan Infinite M200 pro microplate reader (Mnnedorf, Switzerland).
The seven linear miRNA triggers prepared above and the positive control siRNA(siBcl-xL) capable of binding to bcL-xL were transfected into the breast cancer cell line MDA-MB-231 in which miR-222 is overexpressed. Cell viability was measured and is depicted in FIG. 32a.
Linear miRNA triggers that could bind to miR-222 and target bcl-xL and mcl-1, respectively, were prepared and transfected alone or in combination into the breast cancer cell line MDA-MB-231. Cell viability was measured and the measurements are depicted in FIG. 34. siRNAs against Mcl-1 and Bcl-xL were used as controls. […]
The hairpin miRNA triggers prepared above were transfected into MDA-MB-231 and MDA-MB-453 cells which were then measured for cell viability. […]

Data set [2] has as its system breast cancer cell line MDA-MB-453. In words: Cell viability / apoptosis in MDA-MB-453. Particulars: for apoptosis: MDA-MB-453; for cell viability: MDA-MB-453 (does not express miR-222). On the procedure: as §1
(§2) The selected linear miRNA triggers (bcl-xL(1)_22_2222 and bcl-xL(2)_222_222) were transfected into the breast cancer cell line MDA-MB-453 to which miR-222 is not endogenous. Cell viability, and the mRNA and protein expression levels of the target gene (bcl-xL) were measured and the results are depicted in FIGS. 33a to 33c.
The hairpin miRNA triggers prepared above were transfected into MDA-MB-231 and MDA-MB-453 cells which were then measured for cell viability. The results are depicted in FIG. 37.
The MCL-1-222-222 miRNA trigger, which utilizes miR-222 to regulate MCL-1 gene, and the BCL-xL-let7f-let7f miRNA trigger, which utilizes miR-let7f to regulate BCL-xL gene, were administered to MDA-MB-231 and MDA-MB-453.
Next, apoptosis was examined when the two types of miRNA triggers were co-administered to cells. The total concentration of the two triggers was 120 nM, which was the same as for individual miRNAs. The results are depicted in FIG. 47.

Data set [3] concerns Hela-141 cells. In words: Cell viability / apoptosis (CCK-8) in Hela-141 cells. Particulars: Hela-141 cells (express miR-141). Here is the method:
as §1
(§3) The linear miRNA triggers or siRNAs (siLuc and siMcl-1) prepared above were transfected into Hela, Hela-141, and Hela-200c cells which were then measured for cell viability. The results are depicted in FIG. 15.
The hairpin miRNA triggers prepared above were transfected into Hela and Hela-141 cells which were then assayed for apoptosis. As a control, the siRNA (siMcl-1; Table 14) which can repress the expression of mcl-1 was transfected to Hela and Hela-141 cells and measured for apoptotic activity.

In data set [4] the test system is Hela-200c cells. Briefly: Cell viability / apoptosis (CCK-8) in Hela-200c cells. On the procedure:
as §1, §3

Data set [5] deals with Mcl-1. Briefly: Western blot of Mcl-1 protein in Hela-141 cells. Particulars: 5 to 120 nM, compared to the control Luc-141-141. On the procedure:
(§4) miRNA triggers were transfected into cells in the same manner as in Reference Example 4. After 72 hours, the cells were collected using a cell scraper and lysed with a RIPA buffer (NaCl 150 mM, EDTA 5 mM, Tris 50 mM, NP-40 1.0%, sodium deoxycholate 0.5%, SDS 0.1%). The cell lysate was sonicated 15 times, each for 20 sec, with a halt for 30 sec every sonication. Following centrifugation at 5,000 g for 5 min, the supernatant was taken and used to extract proteins therefrom. A total of 30-40 μg of protein sample was separated in 10-15% SDS-PAGE gel and transferred onto a PVDF membrane through a semi-dry blotting system. The membrane was blocked for 1 hour in 5% skimmed milk and incubated for 2 hours with a 1,000-fold dilution of a primary antibody in, 1% skimmed milk. […] The membrane incubated with the secondary antibody was washed three times with 1×PBST for 10 min each wash, and then reacted with Clarity Western ECL Substrate (#1705061, Bio-Rad), after which images were obtained and analyzed using ChemiDoc (Bio-rad, Hercules, USA).
A linear miRNA trigger (Mcl-1-141-141; Table 15) that could bind to miR-141 and target mcl-1 was prepared while a linear miRNA trigger (Luc-141-141; Table 9) that could bind to miR-141 and target Luc (luciferase) was used as a control. […] Then, proteins were extracted from the Hela-141 cells and quantitatively analyzed for Mcl-1 protein level by western blotting. […]
For orientation: A western blot detects proteins with antibodies after separation by electrophoresis.

The subject of data set [6] is Bcl-xL. In words: Western blot of Bcl-xL protein. Particulars: MDA-MB-453. On the procedure: as §4
The cells transfected with the selected miRNA triggers were measured for protein expression levels of the target Bcl-xL and the apoptotic marker cleaved PARP through western blotting, and the results are depicted in FIG. 32b. […]

Data set [7] has as its system BCL-xL mRNA. In words: bcl-xL mRNA expression / gene regulation efficiency. The following applies: MDA-MB-453. Here is the method:
In the same manner as in Reference Example 4, miRNA triggers were transfected into cells. After 48 hours, total RNA was extracted using TRIzol (Thermo Fisher Scientific) according to the manufacturer's instruction. The purified RNA was treated with DNase I and then reverse transcribed in the presence of RevertAid reverse transcriptase (Thermo Fisher Scientific), with random hexamers (Thermo Fisher Scientific) serving as primers. For use in amplification of target genes, primers for target genes were added, together with the cDNA, to the SYBR Green PCR master mix (Thermo Fisher Scientific). RT-qPCR was conducted on a StepOnePlus real-time PCR system. Cq values obtained from this analysis was quantitatively analyzed based on the 2^−ΔΔC(t) method.
as §2
After treatment with miRNA triggers, mRNA expression levels of the target gene BCL-xL were measured. […]

Data set [8] concerns MOLM-14, MV4-11 and Hela cells. In words: Fluorescence (IVIS 100) of cells transfected with Cy5.5-labeled trigger. The following applies: Lipofectamine. On the procedure:
With the aid of Lipofectamine, the linear miRNA trigger (5′-Cy5.5-miR-155-miR-155-PKR-3′) was transfected into the FLT3-ITD mutant AML cell lines MOLM-14 and MV4-11 and the solid cancer cell line Hela. […] Subsequent animal tests were performed with the trigger.

Turning to “MCL-1-222-222: linear miRNA trigger which utilizes miR-222 to regulate MCL-1 gene; SEQ ID NO 109 (ACCCAGUAGCCAGAUGUAGCUACCCAGUAGCCAGAUGUAGCUCCGAACUACGUAGC; all 2'-O-methyl, backbone not given here)”, the apoptosis entry in data set [1] (120 nM (total)) is on record as “no apoptosis was observed”; in data set [2] (120 nM (total)), “did not induce apoptosis”.
“MCL-1-let7f-let7f: linear miRNA trigger designed to knock down MCL-1 by using miR-let7f; SEQ ID NO 113 (AACUAUACAAUGAACUACCUCAAACUAUACAAUGAACUACCUCACCGAACUACGUAGC; all 2'-O-methyl, backbone not given here)”: the apoptosis result in data set [1] (Examples 12-13) and in data set [2] (Example 13) was “none of the two cell lines were induced to undergo apoptosis” each time.
With “Mcl-1-141-141: linear miRNA trigger binding miR-141 and targeting mcl-1; SEQ ID NO 65 (Table 25: 110) (CCAUCUUUACCUCACAGUGUUACCAUCUUUACCUCACAGUGUUACCGAACUACGUAGC; all 2'-O-methyl, backbone not given here)”, the apoptosis induced entry in data set [3] is given as “up to 40%”. In addition, in data set [4], the “apoptosis / cell viability” value is given as “no significant influence on cell viability”. Also, the Mcl-1 protein level entry in data set [5] is “significantly decreased in Mcl-1 protein level”.
On to “bcl-xL(2)_222_222: linear miRNA trigger binding miR-222 and knocking down bcl-xL; SEQ ID NO 107 (ACCCAGUAGCCAGAUGUAGCUACCCAGUAGCCAGAUGUAGCUUACCUGCCAGCCUCCUU; all 2'-O-methyl, backbone not given here)”, for which the cell viability entry in data set [2] is “did not significantly change”. Further, the “protein expression level of target bcl-xL” value in data set [6] is reported as “did not significantly change”. The “mRNA expression level of target bcl-xL” value in data set [7] is reported as “did not significantly change”.

B1: bcl-xL(1)_222_222: linear miRNA trigger binding miR-222 and knocking down bcl-xL; SEQ ID NO 106 (nucleic acid)
chain: ACCCAGUAGCCAGAUGUAGCUACCCAGUAGCCAGAUGUAGCUUCUCCUUCCUGCCCUUCCU
modifications: all 2'-O-methyl, backbone not given here
Take B1: the cell viability result in data set [2] is “did not significantly change”. In data set [6], the “protein expression level of target bcl-xL” value is reported as “did not significantly change”. Besides, the “mRNA expression level of target bcl-xL” value in data set [7] is “did not significantly change”.

B2: 5′-Cy5.5-miR-155-miR-155-PKR-3′: linear miRNA trigger binding miR-155, targeting PKR, labeled with Cy5.5 fluorophore; SEQ ID NO 69 (conjugate)
chain: UUAUGUUUCAGGUUCAGGGGGAUUAUGUUUCCAGGUUCAGGGGGAUAUGUGAGGCAGAGAACGA
modifications: all 2'-O-methyl, 5' {Cy5.5}, backbone not given here
With B2, in data set [8], the “Cy5.5 fluorescence of transfected cells” value is “Fluorescence was detected”.
